The test system of one assay is T1, NeNaC2.
T1 construct: full length, homomeric in Xenopus laevis oocytes (pRSSP vector, cRNA); residues H141 and G516 (DEG position)
Description: two-electrode voltage clamp, Xenopus oocytes. Format: cell-based, Nematostella vectensis. The following applies: channel activated with pH 6.0, -70 mV. A general note: Two-electrode voltage clamp holds a large cell at a set potential and records current.

A further assay deals with T2, NeNaC8.
T2 construct: full length, homomeric in Xenopus laevis oocytes (pRSSP vector, cRNA)
The experiment in a line: two-electrode voltage clamp, Xenopus oocytes. In kind it is cell-based, Nematostella vectensis. Particulars: -70 mV, read-out: Apparent IC50.

Structures are written as SMILES. Like-named read-outs stand apart in the source and are kept apart here.

Take `N=C(N)NC(=O)c1nc(Cl)c(N)nc1N` [amiloride]: the IC50 (commonly the point on the concentration scale where inhibition reaches its midpoint) with NeNaC2 (inhibition incomplete even at high concentrations, n = 10) is 1300 ± 2300 µM; in the assay with NeNaC8 (channel opened by bath with 100 nM Ca2+, n = 11), 310 ± 180 µM.
Take `N=C(N)c1ccc(N=NNc2ccc(C(=N)N)cc2)cc1` [diminazene]: the IC50 with NeNaC2 (complete inhibition at high concentrations, n = 14) was 2.4 ± 0.9 µM; with NeNaC8 (1.8 mM Ca2+ (standard bath), pH 7.4, not competitive with Ca2+, n = 14) it was 0.124 ± 0.075 µM.
